From patent US6432995B1, “Aromatic heterocyclic compounds and their use as anti-inflammatory agents” (Boehringer Ingelheim Pharmaceuticals, Inc., priority 1997, dated 2002) come the findings set out here.

Broadly, the melting point is the temperature, or range, at which the solid turns liquid.

`Cc1ccc(-n2nc(C(C)(C)C)cc2NC(=O)Nc2ccc(F)cc2)cc1C` [Example 32, 1-(5-tert-Butyl-2-(3,4-dimethylphenyl)-2H-pyrazol-3-yl)-3-(4-fluorophenyl)urea] displayed a melting point of 223 to 225 °C.
